Earlier results on one compound are cited in patent publication US20190380987A1, “COMPOSITION AND METHOD FOR TREATING MUCOLYTIC AND INFLAMMATORY AIRWAY CONDITIONS” (priority 2018, published 2019).

Data set [1] relates to CF patients. The settings on record: 2700 mg of oral NAC per day in divided doses of 900 mg, controls declined.

For the compound `CC(=O)N[C@@H](CS)C(=O)O` [N-acetylcysteine], where the note is “alcohol”, the solubility in alcohol result is on record as “soluble”. For the same compound, the solubility in chloroform result (chloroform) was “practically insoluble”. Further, the solubility in ether entry (ether) is “practically insoluble”. Also, the solubility in water entry (water) was “soluble”. Also, the lung function decline entry in data set [1] is “did not experience lung function decline”.
